US20120189566A1 (DAIICHI FINE CHEMICAL CO., LTD., priority 2009, published 2012)

Experiments:
[1] = pH stability of pantethine-4′,4″-diphosphate, pantethine-4′-phosphate and pantethine (Example 2); type: physicochemical; details: pH 4 or lower, or pH 7 or higher; 0.1% (w/v) in 50 mM buffer, 40° C. for 3 months; diphosphate tested as sodium salt
[2] = pH stability of barium pantethine-4′,4″-diphosphate, pantethine and calcium pantetheine-5-sulfonate (Example 1); details: 0.1% (w/v) in 50 mM buffer, 40° C. for 6 months, diphosphate tested as barium salt
Text: Sodium citrate buffer solutions were used as buffer solutions at pH 3, 4, 5 and 6. Sodium phosphate buffer solutions were used as buffer solutions at pH 6.5 and 7. Tris-HCl buffer solutions were used as buffer solutions at pH 8 and 9.5.

[3] = test system: LabCyte MELANO-MODEL, human skin three-dimensional model containing melanocytes; test: Melanin production inhibition test in human skin three-dimensional model; type: cell-based; details: for IC50: read-out: concentration at which melanin production inhibition rate reaches 50%, from plots in FIG. 5, kojic acid 0.1% = 100% inhibition, PBS = 0%
Experimental: The culture medium and the applied sample solution were exchanged every 2 or 3 days. After the completion of the culture, the percentage of viable cells was measured by an MTT (methylthiazole tetrazolium) assay. Further, a melanin amount was measured.
Melanin amount: The skin cells after the MTT assay were immersed in a reagent obtained by dissolving 1% SDS, 0.05 mM EDTA, and a 10 mM tris-HCl buffer solution (pH 7.2). 3 μL of a 5 mg/mL Proteinase K was added and the solution was heated in a water bath at 45° C. overnight to dissolve the skin. A 30% hydrogen peroxide solution and a 500 mM sodium carbonate solution were added thereto, the solution was mixed well and heated in a water bath at 80° C. for 30 min, and impurities were removed by chloroform/methanol (2/1). At the same time, melanin solutions were prepared by similar operations to prepare a calibration curve, and a melanin amount in the cultured skin cells was determined.

[4] = Stability of pantetheine-4′-phosphate, pantetheine and pantethine (Example 4); details: 40° C. for 1 month; for amount of disulfide produced from the compound: alkaline condition (pH 8 and pH 9.5)
Experimental: Fifty mM sodium citrate buffer solutions (pH 3, 4, 5, and 6), a 50 mM sodium phosphate buffer solution (pH 7), and 50 mM tris-HCl buffer solutions (pH 8, 9.5) containing 0.1% (w/v) of pantetheine-4′-phosphate were prepared. Each 0.4 mL of the solutions was encapsulated in a 1 mL-glass ampule and heated at 40° C. for 1 month. Samples before and after the heating were analyzed by an HPLC to measure the content of pantetheine-4′-phosphate.

[5] = ratio of 50% inhibition concentrations

CC(C)(COP(=O)(O)O)[C@@H](O)C(=O)NCCC(=O)NCCSSCCNC(=O)CCNC(=O)[C@H](O)C(C)(C)COP(=O)(O)O [Pantethine-4′,4″-diphosphate, pantethine-4′,4″-diphosphate]
stability (content by HPLC before and after heating) [1]: stable

CC(C)(CO)[C@@H](O)C(=O)NCCC(=O)NCCSS(=O)(=O)[O-].CC(C)(CO)[C@@H](O)C(=O)NCCC(=O)NCCSS(=O)(=O)[O-].[Ca+2] [calcium pantetheine-5-sulfonate]
stability (content by HPLC before and after heating) ([2]; between pH 5 and 6): stable | stability (content by HPLC before and after heating) ([2]; pH 4 or lower, or pH 6.5 or higher): clearly degraded

O=c1cc(CO)occ1O [kojic acid]
melanin production amount, relative to the case where only PBS was added ([3]; 0.1% (7 mM), culture for 2 weeks): 30%

CC(C)(COP(=O)(O)O)[C@@H](O)C(=O)NCCC(=O)NCCS [pantetheine-4′-phosphate]
amount of disulfide produced from the compound [4]: did not decrease | stability (content by HPLC before and after heating) ([4]; pH 3 and 4, 0.1% (w/v) in 50 mM buffer): improved from pantetheine | stability: oxidation to the disulfide ([4]; pH 5 or higher, 0.1% (w/v) in 50 mM buffer): oxidized and changed to pantethine-4′,4″-diphosphate | stability: remaining compound ([4]; pH 7 or higher, 0.1% (w/v) in 50 mM buffer): neither the pantetheine-4′-phosphate nor pantetheine remained

CC(C)(CO)[C@@H](O)C(=O)NCCC(=O)NCCS [pantetheine]
amount of disulfide produced from the compound [4]: decrease in the amount of pantethine produced

O=C1O[C@H]([C@@H](O)CO)C(O)=C1OP(=O)(O)O [sodium ascorbyl-2-phosphate]
IC50 ([3]; culture for 2 weeks): 54 mM

pantethine-4′,4″-di-β-galactoside
IC50 ([3]; culture for 2 weeks): 77 mM

sodium pantethine-4′,4″-diphosphate
whitening activity relative to pantethine [3, 5]: 1.7 fold | whitening activity relative to sodium ascorbyl-2-phosphate [3, 5]: 17 times | IC50 ([3]; culture for 2 weeks): 3.1 mM
